What was measured:
U266 cells = assay: Annexin V/PI apoptosis assay (FACS), U266 cells; format: cell-based; parameters: apoptosis induction: unit not given here; further: key: 0 for no; + for low; ++: + indicates the range of apoptosis induction; +++: + indicates the range of apoptosis induction; ++++ for very strong apoptosis induction
Description: (§1) After treatment adherent cells were trypsinized (as described before), and resuspended in corresponding full medium. Suspension cells or trypsinized adherent cells, supernatant and washing solution (1×PBS from washing before trypsinization) were pooled and then spun down (300 g for 3 min) washed in 2 ml and resuspended in 1000 of annexin V binding buffer and mixed with 2 μg/ml annexin V-Allophycocyanin (APC) (BD-Pharmingen, San Diego, Calif., USA) and 50 ng/ml of propidium iodide (PI; Sigma Aldrich). At least 10.000 cells were measured per sample using a Becton Dickinson FACSCalibur flow Cytometer (San Jose, Calif., USA). Percentage of Annexin V negative and PI negative cells were depicted in the figures. For the analysis of the pro-apoptotic activity of Imiquimod® in primary MM cells and non-malignant BMMCs, 5×10^5 cells BMMCs cells were treated with or without 40 μg/ml Imiquimod® for the indicated time periods. Cells were then harvested and washed twice with PBS. Detection of apoptotic cells was performed using the annexin V/PI assay according to manufacturers' instruction. Briefly, BMMCs were stained with a mixture of annexin V/FITC (Alexis Coorp., Laeufelfingen, Switzerland), propidium iodide (Sigma), anti-CD38-PE and anti-CD45-PC5 for 15 min at room temperature and immediately analyzed by flow cytometry. The percentages of viable cells (i.e. cells negative for annexin V/FITC and PI) within the MM (CD38^posCD45^low/absent) and non-MM fraction (CD38^neg/CD45^pos) were determined by flow cytometry.
(§2) Adherent cells were grown in 24-well plates to confluence and treated with 40 μg/ml Imiquimod® for 24 h. Cells were then trypsinized, suspended in full medium, stained for AnnexinV/PI and apoptosis was measured as described before. Suspension cells (250.000) were treated with 40 μg/ml Imiquimod® for 24 h, stained for Annexin/PI and apoptosis was measured as described above (Annexin V/Propidium Iodide apoptosis Assay).
(§3) OPM-2 and U266 cells (2.5×10^5 in 500 μl) were treated with either Imiquimod® alone (10 μg/500 μl), various inhibitors/drugs alone or with the combination of Imiquimod® and inhibitors for 24 or 48 h. In the controls the solvent of the drug has been added in appropriate amounts. Cells were then AnnexinV/PI stained and apoptosis measured as described before.

OPM2 cells = assay: Annexin V/PI apoptosis assay (FACS), OPM2 cells; format: cell-based; parameters: apoptosis induction: unit not given here; conditions: OPM2 cells
Description: as §1
Cells were cultured as described before and, treated with 40 μg/ml Imiquimod® or Gardiquimod® for 24 h, and apoptosis was assayed by AnnexinV/PI staining and FACS analysis.
as §2, §3

[1] = 24 h, Imi 20 μg/ml + drug 10 μM
[2] = 24 h, Imi 20 μg/ml + drug 20 μM
[3] = 24 h, Imi 20 μg/ml + drug 50 μM
[4] = 48 h, Imi 20 μg/ml + drug 10 μM
[5] = 48 h, Imi 20 μg/ml + drug 20 μM
[6] = 48 h, Imi 20 μg/ml + drug 50 μM
[7] = 24 h, Imi 20 μg/ml + drug 100 μM
[8] = 48 h, Imi 20 μg/ml + drug 100 μM
[9] = 24 h, Imi 20 μg/ml + drug 1 ng/ml
[10] = 24 h, Imi 20 μg/ml + drug 10 ng/ml
[11] = 24 h, Imi 20 μg/ml + drug 50 ng/ml
[12] = 48 h, Imi 20 μg/ml + drug 1 ng/ml
[13] = 48 h, Imi 20 μg/ml + drug 10 ng/ml
[14] = 48 h, Imi 20 μg/ml + drug 50 ng/ml
[15] = 24 h, Imi 20 μg/ml + drug 10 nM
[16] = 24 h, Imi 20 μg/ml + drug 100 nM
[17] = 48 h, Imi 20 μg/ml + drug 10 nM
[18] = 48 h, Imi 20 μg/ml + drug 100 nM

N[C@@H](Cc1ccc(N(CCCl)CCCl)cc1)C(=O)O [Melphalan]
apoptosis induction (U266 cells; [1]): +
apoptosis induction (U266 cells; [2]): ++
apoptosis induction (U266 cells; [3]): +++
apoptosis induction (U266 cells; 24 h, drug alone 10 μM): +
apoptosis induction (U266 cells; 24 h, drug alone 20 μM): +
apoptosis induction (U266 cells; 24 h, drug alone 50 μM): ++
apoptosis induction (U266 cells; [4]): ++
apoptosis induction (U266 cells; [5]): ++
apoptosis induction (U266 cells; [6]): +++
apoptosis induction (U266 cells; 48 h, drug alone 10 μM): +
apoptosis induction (U266 cells; 48 h, drug alone 20 μM): +
apoptosis induction (U266 cells; 48 h, drug alone 50 μM): +++
apoptosis induction (OPM2 cells; [1]): +
apoptosis induction (OPM2 cells; [2]): ++
apoptosis induction (OPM2 cells; [3]): ++
apoptosis induction (OPM2 cells; 24 h, drug alone 10 μM): +
apoptosis induction (OPM2 cells; 24 h, drug alone 20 μM): +
apoptosis induction (OPM2 cells; 24 h, drug alone 50 μM): ++
apoptosis induction (OPM2 cells; [4]): ++
apoptosis induction (OPM2 cells; [5]): ++++
apoptosis induction (OPM2 cells; [6]): ++++
apoptosis induction (OPM2 cells; 48 h, drug 20 μM and 50 μM + Imiquimod 20 μg/ml): nearly complete apoptosis induction in all cells
apoptosis induction (OPM2 cells; 48 h, drug alone 10 μM): +
apoptosis induction (OPM2 cells; 48 h, drug alone 20 μM): ++
apoptosis induction (OPM2 cells; 48 h, drug alone 50 μM): +++

O=C1CCC(N2C(=O)c3ccccc3C2=O)C(=O)N1 (stereo not shown) [Thalidomide]
apoptosis induction (U266 cells; [1]): +
apoptosis induction (U266 cells; [7]): +
apoptosis induction (U266 cells; 24 h, Imi 20 μg/ml + drug 1 mM): +
apoptosis induction (U266 cells; 24 h, drug alone 10 μM): 0
apoptosis induction (U266 cells; 24 h, drug alone 100 μM): 0
apoptosis induction (U266 cells; 24 h, drug alone 1 mM): +
apoptosis induction (U266 cells; [4]): +
apoptosis induction (U266 cells; [8]): +
apoptosis induction (U266 cells; 48 h, Imi 20 μg/ml + drug 1 mM): +
apoptosis induction (U266 cells; 48 h, drug alone 10 μM): 0
apoptosis induction (U266 cells; 48 h, drug alone 100 μM): 0
apoptosis induction (U266 cells; 48 h, drug alone 1 mM): +
apoptosis induction (OPM2 cells; [1]): +
apoptosis induction (OPM2 cells; [7]): +
apoptosis induction (OPM2 cells; 24 h, Imi 20 μg/ml + drug 1 mM): +
apoptosis induction (OPM2 cells; 24 h, drug alone 10 μM): 0
apoptosis induction (OPM2 cells; 24 h, drug alone 100 μM): 0
apoptosis induction (OPM2 cells; 24 h, drug alone 1 mM): 0
apoptosis induction (OPM2 cells; [4]): ++
apoptosis induction (OPM2 cells; [8]): ++
apoptosis induction (OPM2 cells; 48 h, Imi 20 μg/ml + drug 1 mM): +++
apoptosis induction (OPM2 cells; 48 h, drug alone 10 μM): 0
apoptosis induction (OPM2 cells; 48 h, drug alone 100 μM): 0
apoptosis induction (OPM2 cells; 48 h, drug alone 1 mM): 0

CC(C)C[C@H](NC(=O)[C@H](Cc1ccccc1)NC(=O)c1cnccn1)B(O)O [Velcade]
apoptosis induction (U266 cells; [9]): +
apoptosis induction (U266 cells; [10]): +
apoptosis induction (U266 cells; [11]): ++
apoptosis induction (U266 cells; 24 h, drug alone 1 ng/ml): 0
apoptosis induction (U266 cells; 24 h, drug alone 10 ng/ml): ++
apoptosis induction (U266 cells; 24 h, drug alone 50 ng/ml): ++
apoptosis induction (U266 cells; [12]): +
apoptosis induction (U266 cells; [13]): ++
apoptosis induction (U266 cells; [14]): ++
apoptosis induction (U266 cells; 48 h, drug alone 1 ng/ml): 0
apoptosis induction (U266 cells; 48 h, drug alone 10 ng/ml): +++
apoptosis induction (U266 cells; 48 h, drug alone 50 ng/ml): +++
apoptosis induction (OPM2 cells; [9]): +
apoptosis induction (OPM2 cells; [10]): +
apoptosis induction (OPM2 cells; [11]): +
apoptosis induction (OPM2 cells; 24 h, drug alone 1 ng/ml): 0
apoptosis induction (OPM2 cells; 24 h, drug alone 10 ng/ml): +
apoptosis induction (OPM2 cells; 24 h, drug alone 50 ng/ml): +
apoptosis induction (OPM2 cells; [12]): ++
apoptosis induction (OPM2 cells; [13]): ++
apoptosis induction (OPM2 cells; [14]): +++
apoptosis induction (OPM2 cells; 48 h, drug alone 1 ng/ml): 0
apoptosis induction (OPM2 cells; 48 h, drug alone 10 ng/ml): +++
apoptosis induction (OPM2 cells; 48 h, drug alone 50 ng/ml): +++

CCNCc1nc2c(N)nc3ccccc3c2n1CC(C)(C)O [Gardiquimod, 1-(4-Amino-2-ethylaminomethylimidazo[4,5-c]quinolin-1-yl)-2-methylpropan-2-ol]
apoptosis induction compared with Imiquimod (OPM2 cells; 40 μg/ml, 24 h): comparable, though slightly lower extend

CNC(=O)c1cc(Oc2ccc(NC(=O)Nc3ccc(Cl)c(C(F)(F)F)c3)cc2)ccn1 [Sorafenib]
apoptosis induction (U266 cells; 24 h, Imi 20 μg/ml + drug 1 μM): 0
apoptosis induction (U266 cells; [1]): +
apoptosis induction (U266 cells; [3]): +++
apoptosis induction (U266 cells; 24 h, drug alone 1 μM): 0
apoptosis induction (U266 cells; 24 h, drug alone 10 μM): 0
apoptosis induction (U266 cells; 24 h, drug alone 50 μM): +++
apoptosis induction (U266 cells; 48 h, Imi 20 μg/ml + drug 1 μM): +
apoptosis induction (U266 cells; [4]): ++
apoptosis induction (U266 cells; [6]): +++
apoptosis induction (U266 cells; 48 h, drug alone 1 μM): +
apoptosis induction (U266 cells; 48 h, drug alone 10 μM): +
apoptosis induction (U266 cells; 48 h, drug alone 50 μM): +++
apoptosis induction (OPM2 cells; 24 h, Imi 20 μg/ml + drug 1 μM): +
apoptosis induction (OPM2 cells; [1]): +
apoptosis induction (OPM2 cells; [3]): ++++
apoptosis induction (OPM2 cells; 24 h, drug alone 1 μM): 0
apoptosis induction (OPM2 cells; 24 h, drug alone 10 μM): +
apoptosis induction (OPM2 cells; 24 h, drug alone 50 μM): ++++
cells in apoptosis (OPM2 cells; 48 h, 10 μM drug + Imiquimod 20 μg/ml): ~100%
apoptosis induction (OPM2 cells; 48 h, Imi 20 μg/ml + drug 1 μM): ++
apoptosis induction (OPM2 cells; [4]): ++++
apoptosis induction (OPM2 cells; [6]): ++++
apoptosis induction (OPM2 cells; 48 h, drug alone 1 μM): 0
apoptosis induction (OPM2 cells; 48 h, drug alone 10 μM): ++
apoptosis induction (OPM2 cells; 48 h, drug alone 50 μM): ++++
cell killing (OPM2 cells; drug alone 50 μM): completely killed cells

C[C@@H]1C[C@H]2[C@@H]3CCC4=CC(=O)C=C[C@]4(C)[C@@]3(F)[C@@H](O)C[C@]2(C)[C@@]1(O)C(=O)CO [Dex., Dexamethasone]
apoptosis induction (U266 cells; [15]): +
apoptosis induction (U266 cells; [16]): +
apoptosis induction (U266 cells; 24 h, Imi 20 μg/ml + drug 1 μM): +
apoptosis induction (U266 cells; 24 h, drug alone 10 nM): 0
apoptosis induction (U266 cells; 24 h, drug alone 100 nM): 0
apoptosis induction (U266 cells; 24 h, drug alone 1 μM): 0
apoptosis induction (U266 cells; [17]): +
apoptosis induction (U266 cells; [18]): +
apoptosis induction (U266 cells; 48 h, Imi 20 μg/ml + drug 1 μM): +
apoptosis induction (U266 cells; 48 h, drug alone 10 nM): 0
apoptosis induction (U266 cells; 48 h, drug alone 100 nM): 0
apoptosis induction (U266 cells; 48 h, drug alone 1 μM): 0
apoptosis induction (OPM2 cells; [15]): +
apoptosis induction (OPM2 cells; [16]): +
apoptosis induction (OPM2 cells; 24 h, Imi 20 μg/ml + drug 1 μM): +
apoptosis induction (OPM2 cells; 24 h, drug alone 10 nM): 0
apoptosis induction (OPM2 cells; 24 h, drug alone 100 nM): 0
apoptosis induction (OPM2 cells; 24 h, drug alone 1 μM): 0
apoptosis induction (OPM2 cells; [17]): ++
apoptosis induction (OPM2 cells; [18]): +++
apoptosis induction (OPM2 cells; 48 h, Imi 20 μg/ml + drug 1 μM): +++
apoptosis induction (OPM2 cells; 48 h, drug alone 10 nM): 0
apoptosis induction (OPM2 cells; 48 h, drug alone 100 nM): 0
apoptosis induction (OPM2 cells; 48 h, drug alone 1 μM): 0

Source: patent US8501734B2, “Medical intervention in haematological cancers” (Oncotyrol-Center for Personalized Cancer Medicine GmbH …, priority 2008, dated 2013)
